From US20260209249A1, “NOVEL TRICYCLIC COMPOUND AS KRAS G12D INHIBITOR, AND USE THEREOF” (SK Biopharmaceuticals Co., priority 2022, published 2026)

Legend:
[1] = target: T1, GppNHp-KRAS G12D mutant protein (Homo sapiens, UniProt P01116, G12D); experiment: Differential scanning fluorimetry (DSF) binding affinity to GppNHp-KRAS G12D mutant protein; conditions: DSF thermal shift, 10 μM compound, 4 μg KRAS protein, 50 mM HEPES (pH 7.5)
T1 construct: purchased Daegu Gyeongbuk Medical Innovation Foundation (DGMIF), made to order
Procedure, shortened: (§1)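 Thermal shift ΔTm was measured at 10 μM compound over a 25–99 °C ramp (0.05 °C/s), read at 580 nm ex/623 nm em with SYPRO Orange (2×). The protein (4 μg) was preincubated with compound for 30 min at room temperature, in 50 mM HEPES pH 7.5 for GppNHp-KRAS G12D or in kit buffer for GDP-KRAS G12D.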

[2] = target: T2, GDP-KRAS G12D mutant protein (Homo sapiens, UniProt P01116, G12D); experiment: Differential scanning fluorimetry (DSF) binding affinity to GDP-KRAS G12D mutant protein; conditions: DSF thermal shift, 10 μM compound, 4 μg KRAS protein
T2 construct: purchased Daegu Gyeongbuk Medical Innovation Foundation (DGMIF), made to order
Procedure, shortened: as §1

[3] = tested on: ERK phosphorylation (pERK) induced by KRAS G12D mutation; experiment: Inhibitory activity against ERK phosphorylation (pERK) induced by KRAS G12D mutation, immunofluorescence assay in AsPC-1 cells; type: cell-based; conditions: Homo sapiens, ASPC1, 3 h drug treatment, pERK (Thr202/Tyr204) signal normalized to DAPI
Description: Test Example 2: Measurement of Inhibitory Activity Against ERK Phosphorylation (pERK) Induced by KRAS G12D Mutation (Immunofluorescence Assay)
Immunofluorescence is a method used to detect specific substances within cells or tissues through antigen-antibody interactions, and allows for the identification of the presence or absence of specific proteins by using antibodies labeled with various fluorescent dyes. After a primary antibody that recognizes a specific protein selectively binds to the epitope, a fluorescent antibody (secondary antibody) is bound to the primary antibody.
It was confirmed as follows that the compounds according to an embodiment of the present application inhibit phosphorylation of extracellular signal-regulated kinases (Phospho-ERK, pERK) induced by KRAS G12D mutation.
AsPC-1 cells were seeded at a density of 10,000 cells/well in RPMI-1640 medium containing 10% FBS and 1% Penicillin-Streptomycin in 384-well plates (Perkinelmer, #6057300) and allowed to attach for 16 h. After the cells attached to the plate, the cells were treated with drugs at a maximum concentration of 10 μM with a 3-fold serial dilution. After 3 h of drug treatment, the medium was removed and the cells were treated with 50 μL of 4% formaldehyde (Biosesang, #PC2031-050-00) for 20 min and washed three times with 50 μL of phosphate buffered saline (PBS).
50 μL of PBS containing 0.3% Triton X-100 (Sigma, #T8787-250 mL) was added and reacted for 20 minutes to allow antibody penetration into cells, and then the plate was washed three times with 50 μL of PBS. To block nonspecific binding of antibodies to the plate, 50 μL of PBS containing 2% BSA (sigma, #A7906-500G) and 0.01% Tween-20 (Sigma, #P1379-500 mL) (hereinafter referred to as PBS-T) was added, and reacted at room temperature for 2 hours.
To detect pERK, the primary antibody (cell signaling, #9101) was diluted 1:500 in PBS-T containing 2% BSA, 50 μL was added, and the plate was stored in a refrigerator at 4° C. for 16 hours to react, followed by washing three times with 50 μL of PBS-T. To visualize the primary antibody, the secondary antibody, i.e., anti-rabbit-Alexa Fluor 488 (ThermoFisher, #A11008), was diluted 1:1000 in PBS-T containing 2% BSA, 50 μL was added, and after reaction at room temperature for 1 hour, the plate was washed three times with 50 μL of PBS-T. Next, to visualize the nuclei of cells, DAPI (Thermofisher, #62248, 1 mg/mL) was diluted 1:1000 in PBS-T, 50 μL each was added, reacted at room temperature for 10 minutes, and washed three times with 50 μL of PBS-T. 50 μL of PBS-T was added to each well, and the plate was read for fluorescence value using HCS equipment (MOLECULAR DEVICES/ImageXpress Micro).
Data analysis was performed by normalizing the pERK (Thr202/Tyr204) signal to the DAPI signal and calculating the percentage relative to the DMSO as a control. The IC50 value was determined by fitting a four-parameter dose-response curve using the GraphPad Prism software (version 8.4.3), and interpolating the concentration at which 50% inhibition occurred. The results of calculating the inhibitory efficacy of the compounds according to one embodiment of the present application against KRAS G12D mutation-induced pERK activity are shown in Table 3.

SMILES	GppNHp-KRAS G12D (ΔTmD, ° C.) [1]	GDP-KRAS G12D (ΔTmD, ° C.) [2]	IC50 [3]
CCc1c(F)ccc2cc(O)cc(-c3cc4nc(OC[C@@]56CCCN5C[C@H](F)C6)nc(N5C[C@H]6CC[C@@H](C5)N6)c4c4cn(C)nc34)c12 [Example 83, 4-(9-((1R,5S)-3,8-diazabicyclo[3.2.1]octan-3-yl)-7-(((2R,7aS)-2-fluorotetrahydro-1H-pyrrolizin-7a(5H)-yl)methoxy)-2-methyl-2H-pyrazolo[4,3-f]quinazolin-4-yl)-5-ethyl-6-fluoronaphthalen-2-ol]	5.76 °C	10.06 °C	100 nM
C#Cc1c(F)ccc2cc(N)cc(-c3cc4nc(OC[C@@]56CCCN5C[C@H](F)C6)nc(N5C[C@H]6CC[C@@H](C5)N6)c4c4cn(C)nc34)c12 [Example 71, 4-(9-((1R,5S)-3,8-diazabicyclo[3.2.1]octan-3-yl)-7-(((2R,7aS)-2-fluorotetrahydro-1H-pyrrolizin-7a(5H)-yl)methoxy)-2-methyl-2H-pyrazolo[4,3-f]quinazolin-4-yl)-5-ethynyl-6-fluoronaphthalen-2-amine]	4.88 °C	8.14 °C	512 nM
C#Cc1c(F)ccc2cc(O)cc(-c3c(F)c4nc(OC[C@@]56CCCN5C/C(=C\F)C6)nc(N5C[C@H]6CC[C@@H](C5)N6)c4c4cc(C)oc34)c12 [Example 64, 4-(1-((1R,5S)-3,8-diazabicyclo[3.2.1]octan-3-yl)-5-fluoro-3-(((S,Z)-2-(fluoromethylene)tetrahydro-1H-pyrrolizin-7a(5H)-yl)methoxy)-8-methylfuro[3,2-n]quinazolin-6-yl)-5-ethynyl-6-fluoronaphthalen-2-ol]	11.39 °C	15.24 °C	62 nM
Oc1cc(-c2cc3nc(OC[C@@]45CCCN4C[C@H](F)C5)nc(N4C[C@H]5CC[C@@H](C4)N5)c3n3ccnc23)c2c(F)c(F)ccc2c1 [Example 3, 4-(1-((1 R,5S)-3,8-diazabicyclo[3.2.1]octan-3-yl)-3-(((2R,7aS)-2-fluorotetrahydro-1H-pyrrolizin-7a(5H)-yl)methoxy)imidazo[1′,2′:1,6]pyrido[3,2-d]pyrimidin-6-yl)-5,6-difluoronaphthalen-2-ol]	1.90 °C	6.05 °C	1420 nM
Cc1cc2c(o1)c(-c1cc(O)cc3ccccc13)c(F)c1nc(OC[C@@]34CCCN3C[C@H](F)C4)nc(NCC3(N(C)C)CCC3)c12 [Example 47, 4-(1-(((1-(dimethylamino)cyclobutyl)methyl)amino)-5-fluoro-3-(((2R,7aS)-2-fluorotetrahydro-1H-pyrrolizin-7a(5H)-yl)methoxy)-8-methylfuro[3,2-n]quinazolin-6-yl)naphthalen-2-ol]			7980 nM
Cc1cc2c(o1)c(-c1cc(O)cc3ccccc13)c(F)c1nc(OC[C@@]34CCCN3C[C@H](F)C4)nc(N3C[C@H]4CC[C@@H](C3)N4)c12 [Example 43, 4-(1-((1R,5S)-3,8-diazabicyclo[3.2.1]octan-3-yl)-5-fluoro-3-(((2R,7aS)-2-fluorotetrahydro-1H-pyrrolizin-7a(5H)-yl)methoxy)-8-methylfuro[3,2-f]quinazolin-6-yl)naphthalen-2-ol]	4.27 °C	9.30 °C	953 nM
C#Cc1c(F)ccc2cc(O)cc(-c3cc4nc(OC[C@@]56CCCN5C[C@H](F)C6)nc(NCC5(N(C)C)CCC5)c4n4ccnc34)c12 [Example 6, 4-(1-(((1-(dimethylamino)cyclobutyl)methyl)amino)-3-(((2R,7aS)-2-fluorotetrahydro-1H-pyrrolizin-7a(5H)-yl)methoxy)imidazo[1′,2′:1,6]pyrido[3,2-d]pyrimidin-6-yl)-5-ethynyl-6-fluoronaphthalen-2-ol]			2320 nM
